Laboratory results published in US10359430B2, “Selective near-infrared optical imaging of necrotic cells and simultaneous cell fixing and counter staining with metallacrown complexes” (THE REGENTS OF THE UNIVERSITY OF MICHIGAN, priority 2015, dated 2019).

Legend:
HeLa cells [1] = assay: NIR epifluorescence microscopy of HeLa cells treated with N-acetyl cysteine; type: cell-based, Human; conditions: 150 μM complex 15 minutes
Experimental: Formation of extracellular vesicules is a result of cellular response on oxidative stress which indicates excessive production of ROS (Reactive oxygen species). In order to investigate if ROS are responsible for dual function of Yb^3+[Zn(II)MCpyzHA], HeLa cancer cells were treated with NAC (N-acetyl cysteine), which is a well known antioxidant that efficiently blocks production of reactive oxygen species (ROS).
(§1) Cells were seeded in a 8-well Lab Tek Chamber coverglass (Nunc, Dutsher S.A., Brumath, France) at a density of 6×10^4 cells/well and cultured at 37° C. in 5% humidified CO2 atmosphere.
After 24 hours, the cell culture media was removed. Some of the cells were washed twice with OPTI-MEM® media (room temperature), incubated with N-acetyl cysteine (NAC) for 15 minutes, washed twice with OPTI-MEM® media and incubated with 150 μM of Yb^3+[Zn(II)MCpyzHA] for 15 minutes.
After 24 hours, the cell culture media was removed. Some of the cells were washed twice with OPTI-MEM® media (room temperature), and incubated with 150 μM of Yb^3+[Zn(II)MCpyzHA] for 15 minutes. N-acetyl cysteine (NAC) was added, and the cells were incubated for another 30 minutes. The cells were washed twice with OPTI-MEM® media.

[2] = Photostability stress tests; type: physicochemical; conditions: 150 μM in water and OPTI-MEM media, 5 hours of irradiation with 377 nm light
Experimental: Photostability stress tests of Yb^3+[Zn(II)MCpyzHA] (Yb λem=980 nm) and Nd^3+[Zn(II)MCpyzHA] (Nd λem=1064 nm) and the commercially available dye for necrotic cells (Propidium Iodide) were performed. The complexes (150 μM) or dye (50 μM) were dissolved in water and the complexes were also dissolved in OPTI-MEM® media. The MC solutions were exposed to 5 hours of UV radiation (377 nm). The propidium iodide solution was exposed to 5 hours of UV radiation (530 nm).

HeLa cells [3] = assay: NIR epifluorescence microscopy of HeLa cells (necrotic cell labelling, simultaneous staining and fixing); type: cell-based, Human; conditions: 150 μM complex and 3 μM propidium iodide together, UV light (377 nm) 5 minutes
Experimental: as §1
The continued incubation enabled the internalization of the complexes.
All of the previously mentioned incubated HeLa cells were then washed with fresh OPTI-MEM® media and were incubated with 3 μM propidium iodide for 5 minutes. Propidium iodide is a commercially available stain (emitting in the visible range) for necrotic cells, and was used to confirm cell necrosis.
i. 377 nm with 50 nm band-pass filter with 50 nm bandwidth for the excitation and 805 nm long-pass filter 805 nm or 996 nm band-pass filter with 70 nm bandwidth for YbIII emission in the NIR range.
ii. […] for the excitation and 805 nm long-pass filter 805 nm or 996 nm band-pass filter with 70 nm bandwidth for YbIII emission in the NIR range. […]

HeLa cells [4] = assay: as above; type: cell-based, Human; conditions: for Colocalization with propidium iodide: then 3 μM PI 5 minutes
HeLa cells [5] = assay: Raman spectroscopy of fixed HeLa cells; type: cell-based, Human; conditions: cells stained and fixed as in Example 1
Experimental: Raman spectroscopy maps were collected for living HeLa cells, HeLa cells that were fixed with paraformaldehyde (PFA), HeLa cells that were fixed with methanol (MeOH), and HeLa cells that were stained and fixed with Yb^3+[Zn(II)MCpyzHA] using the example method disclosed herein (as described in Example 1).
Cells were seeded in an 8-well Lab Tek Chamber coverglass, as previously described in Example 1. Cells were washed trice with OPTI-MEM® (room temperature) and incubated with 4% PFA solution in PBS (Phosphate Buffered Saline) for 30 minutes at room temperature. […]
To study the changes between the different samples, a background subtraction was applied and the signal was collected in the range of 0-4000 cm^−1 in different cellular structures, cytoplasm and nucleus, allowing to observe the variations of specific vibrations arising from the nucleic acids and proteins, in particular, the CH vibrational bands at 2800-3300 cm^−1 that reflect a distribution of proteins, lipids and carbohydrates in cells and often used to localize cellular organelles, as well as OH band in the range of 3100-3650 cm^−1. […] However, a more detailed analysis of Raman signal is required to fully quantify and identify corresponding peaks in order to completely understand changes in the biomolecular profile observed for the fixation with Yb^3+[Zn(II)MCpyzHA].

[6] = system: MSC (Mesenchymal Stem Cells); conditions: 150 μM, 15 minutes, UV light (377 nm) 8 minutes, further 1 hour
Experimental: The MSC (Mesenchyml Stem Cells) cell line was obtained from University in Orleans, 13MTO Laboratory (Orleans, France). The as-received MSC cell line has been obtained from the bone marrow of rats. The MSC cell line was cultured in Minimum Essential Medium (MEM) supplemented with 10% heat-inactivated fetal bovine serum (FBS), 1% of L-glutamine (GlutaMAX) and 1% of streptomycin/penicillin antibiotics. The MSC were also seeded in a similar manner to the HeLa cells.
After 24 hours, the respective cell culture media was removed and the HeLa cells or MSC were incubated with the Yb^3+[Zn(II)MCpyzHA] complex according to one of the following procedures.
The MSC cells were incubated with a solution of 150 μM Yb^3+[Zn(II)MCpyzHA] complex in OPTI-MEM® media (supplemented with 2% of FBS at 37° C. in 5% CO2 atmosphere) for 15 minutes, illuminated with UV light (377 nm) for 8 minutes, and then were allowed to continue incubating for 1 hour.
Prior to epifluorescent imaging, the HeLa and the MSC cells were washed twice with OPTI-MEM® (room temperature) in order to remove any non-specifically bound Yb^3+[Zn(II)MCpyzHA] complex.

HeLa cells [7] = assay: Confocal microscopy of HeLa cells; type: cell-based, Human; conditions: 150 μM, 15 minutes, UV light (377 nm) 8 minutes, further 1 hour; λex 458 nm, λem 499-799 nm
Source text: Complexes were excited with Argon laser at 458 nm and emission signal was collected from 499 nm to 799 nm. During this experiment, a 63× Plan-Apochromat objective was used (2× zoom).

[8] = Photophysical properties of the metallacrowns in solid state and in aqueous solutions; type: physicochemical
Experimental: FIG. 4. illustrates the normalized excitation (λem(Nd^3+)=1070 nm, λem(Yb^3+)=980 nm) and emission (λex=370 nm) spectra of Yb^3+[Zn(II)MCpyzHA], at the top, and Nd^3+[Zn(II)MCpyzHA] MCs, at the bottom, (solid or 200 μM solutions, room temperature).

[9] = 150 μM, 15 minutes, UV light (377 nm) 8 minutes, further 1 hour

Question: With O=C([N-][O-])c1cnccn1.O=C([N-][O-])c1cnccn1.O=C([N-][O-])c1cnccn1.O=C([N-][O-])c1cnccn1.O=C([N-][O-])c1cnccn1.O=C([N-][O-])c1cnccn1.O=C([N-][O-])c1cnccn1.O=C([N-][O-])c1cnccn1.O=C([N-][O-])c1cnccn1.O=C([N-][O-])c1cnccn1.O=C([N-][O-])c1cnccn1.O=C([N-][O-])c1cnccn1.O=C([N-][O-])c1cnccn1.O=C([N-][O-])c1cnccn1.O=C([N-][O-])c1cnccn1.O=C([N-][O-])c1cnccn1.O=S(=O)([O-])C(F)(F)F.O=S(=O)([O-])C(F)(F)F.O=S(=O)([O-])C(F)(F)F.[Yb+3].[Zn+2].[Zn+2].[Zn+2].[Zn+2].[Zn+2].[Zn+2].[Zn+2].[Zn+2].[Zn+2].[Zn+2].[Zn+2].[Zn+2].[Zn+2].[Zn+2].[Zn+2].[Zn+2].c1ccncc1.c1ccncc1.c1ccncc1.c1ccncc1.c1ccncc1.c1ccncc1.c1ccncc1.c1ccncc1 [Yb^3+[Zn(II)MCpyzHA]] as the compound, how does the “Internalization inside the cells, complex Incubation First” value (HeLa cells [1]; then NAC 30 minutes) read?
Answer: Its value is “do not show internalization”.

Question: And the “NIR signal in cells, NAC Incubation First” value (HeLa cells [1]; NAC 15 minutes, wash, exposure time 400 ms)?
Answer: The value was “very good signal in NIR”.

Question: And the Photostability [2]?
Answer: Its Photostability is “fully photostable”.

Question: And the “Incubation time after which emission was observed in cells after UV illumination” value (HeLa cells [3])?
Answer: Its value is 20 min.

Question: And the “Selectivity of labelling for necrotic cells” value (HeLa cells [4]; 45 μM, 15 minutes, no UV light exposure (also 150 μM, 12 hours))?
Answer: Its value is “going exclusively in necrotic cells”.

Question: What about the “Specificity of the dye for cell state” value (HeLa cells [4]; 150 μM complex and 3 μM propidium iodide together, UV light (377 nm) 5 minutes) of the same compound?
Answer: The value was “specific for dead and apoptotic cells”.

Question: What about the “NIR staining of fixed HeLa cancer cells (cell compartments)” value (HeLa cells [4]; [9]) of the same compound?
Answer: The value was “operates as a NIR stain for the nucleus as well as for the cytoplasm”.

Question: What about the “Shape and morphology of stained and fixed cells one month after the procedure” value (HeLa cells [4]; 150 μM, 15 minutes, UV light (377 nm) 8 minutes, further 1 hour, imaged one month later) of the same compound?
Answer: Its value is “maintained the same shape and morphology”.

Question: And the “Colocalization with propidium iodide” value (HeLa cells [4]; [9])?
Answer: Its value is “colocalize in the same cell compartments”.

Question: What about the “Colocalization with propidium iodide” value (HeLa cells [4]; 150 μM, 12 hours, no UV light) of the same compound?
Answer: Its value is “colocalize in the same cell compartment”.

Question: What about the “Toxicity to the HeLa cell line” value (HeLa cells [4]; 150 μM, incubation during 12 hours, no UV light exposure) of the same compound?
Answer: Its value is “toxic”.

Question: And the “Biomolecular profile of fixed HeLa cells compared with PFA and methanol fixation (Raman)” value (HeLa cells [5])?
Answer: The value was “very similar biomolecular profiles”.

Question: And the “Function in MSC cells” value [6]?
Answer: Its value is “acting as an NIR dye and cell fixative”.

Question: And the “Intracellular location (confocal, visible ligand emission)” value (HeLa cells [7])?
Answer: The value was “specifically located in nucleus as well as in cytoplasm”.

Question: What about the “Q (quantum yield), D2O” value ([8]; 200 μM in D2O, room temperature, excitation at 370 nm) of the same compound?
Answer: Its value is 0.257(3) %.

Question: What about the “Q (quantum yield), H2O” value ([8]; 200 μM in H2O, room temperature, excitation at 370 nm) of the same compound?
Answer: The value was 1.12(7) · 10^−2%.

Question: What about the Excitation wavelength limit ([8]; FIG. 4 (Top), excitation spectrum) of the same compound?
Answer: The Excitation wavelength limit was “up to 480 nm”.

Question: And the “Q (quantum yield), Solid” value ([8]; solid state, room temperature, excitation at 370 nm)?
Answer: Its value is 0.659(4) %.
